According to US20260083865A1, “PROSTATE SPECIFIC MEMBRANE ANTIGEN (PSMA) LIGANDS AND USE THEREOF” (priority 2022, published 2026):
Where two headings read alike, the source gives them in different places. Numbered stars: 1 amine (or outer) side, 2 acyl side, 3 side chain; on linkers, the order of the positions; unused ones are H or OH. Bridge positions count the residues as written; N and C are the ends. Square brackets hold non-standard residues; d marks the D form. Peptide text beside a SMILES is read from it. * marks the point of attachment. TtdsdLys(DOTA)NH2 = NC(=O)[C@@H](CCCCNC(=O)CN1CCN(CC(=O)O)CCN(CC(=O)O)CCN(CC(=O)O)CC1)NC(=O)CCC(=O)NCCCOCCOCCOCCCN*; DOTA = O=C(O)CN1CCN(CC(=O)O)CCN(CC(=O)*)CCN(CC(=O)O)CC1; Arg(Me2a) = CN(C)C(=N)NCCC[C@H](N)C(=O)O; Phe(4-Cl) = N[C@@H](Cc1ccc(Cl)cc1)C(=O)O; X1 = O=C(CC1CCN([*:1])CC1)[*:2]; Cit = NC(=O)NCCC[C@H](N)C(=O)O; Lys(Me) = CNCCCC[C@H](N)C(=O)O; Tle = CC(C)(C)[C@H](N)C(=O)O; 4Amb = NCc1ccc(C(=O)O)cc1; Aib = CC(C)(N)C(=O)O; X8 = O=C(CC1CCNCC1)*; βAla = NCCC(=O)O

Key:
[1] = target: T1, Fc-fusion protein of human PSMA (hPSMA-Fc) (Homo sapiens, UniProt Q04609); experiment: Surface plasmon resonance assay (Biacore T200, single cycle kinetic); format: binding; settings: hPSMA-Fc, 25° C., read-out: pKD CAT (converted)
T1 construct: purchased Acro Biosystems PSA-H5264
Description: Surface plasmon resonance (SPR) studies were performed using a Biacore™ T200 SPR system. Briefly, polarized light is directed towards a gold-labeled sensor surface, and minimum intensity reflected light is detected. The angle of reflected light changes as molecules bind and dissociate.
Fc-fusion protein of human PSMA (hPSMA-Fc, Acro Biosystems, Cat #PSA-H5264) was captured on a Fc-capture chip (Biacore™ CM5 sensor chip coated with ˜300 RU of an Fc-binding peptide). hPSMA-Fc was diluted in Running Buffer (HBST, 0.1% DMSO) to a final concentration of 100 nM and then flushed over the Fc-capture chip to immobilized ˜1000 RUs.
Stock solutions of test compounds were prepared by dissolving each compound in DMSO. DMSO stock solution were diluted 1:1000 in Running Buffer without DMSO. Further sequential dilutions were made with Running Buffer containing 0.1% DMSO. SPR binding analyses were performed in Single Cycle Kinetic (SCK) mode at 25° C. Flow cell coated with the Fc-binding peptide only served as reference flowcell. After each SCK run, hPSMA-Fc was removed with 10 mM glycine buffer, pH 1.5.
In between every three SCK measurements, a blank run with Running Buffer instead of test compound was included to correct for baseline drifts (double blanking method).
Table 5 describes the protocol steps for Fc-fusion target capturing and assessment of the binding kinetics.
For each test compound, SPR raw data in the form of resonance units (RU) were plotted as sensorgrams using the Biacore™ T200 control software. The signal from the blank sensorgram was subtracted from that of the test compound sensorgram (blank corrected). The blank corrected sensorgram was corrected for baseline drift by subtracting the sensorgram of a SCK run without the test compound (running buffer only). The dissociation constant (KD) was calculated from Blank-normalized SPR data using the 1:1 Langmuir binding model from the Biacore™ Insight Evaluation software. The pKD value (negative decadic logarithm of dissociation constant) was calculated using Microsoft Excel.

[2] = target: T2, PSMA-expressing C4-2 cells (Homo sapiens, UniProt Q04609); experiment: FACS binding assay (competition with 50 nM PSM-0183); settings: C4-2 cells, read-out: pIC50 [C4-2] CAT (converted)
T2 construct: PSMA-expressing C4-2 cells (ATCC, Cat. No. CRL-3314) were cultured in RPMI-1640; host or cells: C4-2 cells
Description: In order to determine binding of compounds according to the present invention to PSMA-expressing cells, a FACS binding assay was established.
PSMA-expressing C4-2 cells (ATCC, Cat. No. CRL-3314) were cultured in RPMI-1640 (Pan Biotech, Cat. No. P04-18050) including 10% fetal calf serum (Biochrom) and 100 U/ml penicillin and 100 μg/mL streptomycin (Sigma, Cat. No. P0781). Cells were detached with Accutase (Biolegend, Cat. No. BLD-423201) and washed in FACS buffer (PBS (Sigma, Cat. No. D8537) including 1% fetal calf serum). Cells were diluted in FACS buffer to a final concentration of 500,000 cells per mL. 200 μL of the cell suspension were transferred to a u-shaped non-binding 96-well plate (Greiner Bio-One, Cat. No. 650901) and cells were washed in ice-cold FACS buffer.
For IC50 determination, C4-2 cells were incubated with 50 nM PSM-0183 (Ac-Thr-Aib-Phe[Cys-Lys-Arg-Aib-Asn-Cys]-Tle-Thr-Asp-Ttds-Ttds-AF488N3K-NH2) in the presence of increasing concentrations of test compounds at 4° C. for 1 hour. After two wash steps with ice-cold FACS buffer, cells were analyzed in an Attune NxT flow cytometer. Median fluorescence intensities (MFI) of the FITC/AF488-channel were calculated by Attune NxT software. MFI values were plotted against peptide concentration and four parameter logistic (4PL) curve fitting and IC50/pIC50 calculations were performed using ActivityBase software (IDBS).

[3] = SPR, single cycle kinetic, category
[4] = FACS binding, competition with 50 nM PSM-0183, category
[5] = pKD category for PSMA SPR activity assay

T2 sequence (Q04609 whole entry): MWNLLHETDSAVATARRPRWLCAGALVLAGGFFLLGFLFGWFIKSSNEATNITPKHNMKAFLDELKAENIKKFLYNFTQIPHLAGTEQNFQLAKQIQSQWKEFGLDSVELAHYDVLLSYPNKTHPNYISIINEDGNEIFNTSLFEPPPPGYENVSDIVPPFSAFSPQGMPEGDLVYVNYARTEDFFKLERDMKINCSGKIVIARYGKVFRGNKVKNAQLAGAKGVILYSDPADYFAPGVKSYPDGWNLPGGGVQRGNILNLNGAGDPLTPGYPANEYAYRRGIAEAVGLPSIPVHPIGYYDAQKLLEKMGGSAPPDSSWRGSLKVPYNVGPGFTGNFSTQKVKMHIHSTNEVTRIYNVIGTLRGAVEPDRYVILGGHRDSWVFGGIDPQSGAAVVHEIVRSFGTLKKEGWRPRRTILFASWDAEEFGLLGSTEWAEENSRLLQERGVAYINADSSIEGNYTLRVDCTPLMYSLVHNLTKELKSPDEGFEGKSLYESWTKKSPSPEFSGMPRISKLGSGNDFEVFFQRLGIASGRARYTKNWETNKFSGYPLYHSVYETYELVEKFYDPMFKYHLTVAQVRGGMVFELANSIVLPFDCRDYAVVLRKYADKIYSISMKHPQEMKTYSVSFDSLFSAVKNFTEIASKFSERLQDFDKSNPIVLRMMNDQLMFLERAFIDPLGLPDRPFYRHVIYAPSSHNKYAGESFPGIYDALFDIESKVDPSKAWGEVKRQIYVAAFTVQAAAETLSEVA
T1 sequence (Q04609 44-750 limits assumed): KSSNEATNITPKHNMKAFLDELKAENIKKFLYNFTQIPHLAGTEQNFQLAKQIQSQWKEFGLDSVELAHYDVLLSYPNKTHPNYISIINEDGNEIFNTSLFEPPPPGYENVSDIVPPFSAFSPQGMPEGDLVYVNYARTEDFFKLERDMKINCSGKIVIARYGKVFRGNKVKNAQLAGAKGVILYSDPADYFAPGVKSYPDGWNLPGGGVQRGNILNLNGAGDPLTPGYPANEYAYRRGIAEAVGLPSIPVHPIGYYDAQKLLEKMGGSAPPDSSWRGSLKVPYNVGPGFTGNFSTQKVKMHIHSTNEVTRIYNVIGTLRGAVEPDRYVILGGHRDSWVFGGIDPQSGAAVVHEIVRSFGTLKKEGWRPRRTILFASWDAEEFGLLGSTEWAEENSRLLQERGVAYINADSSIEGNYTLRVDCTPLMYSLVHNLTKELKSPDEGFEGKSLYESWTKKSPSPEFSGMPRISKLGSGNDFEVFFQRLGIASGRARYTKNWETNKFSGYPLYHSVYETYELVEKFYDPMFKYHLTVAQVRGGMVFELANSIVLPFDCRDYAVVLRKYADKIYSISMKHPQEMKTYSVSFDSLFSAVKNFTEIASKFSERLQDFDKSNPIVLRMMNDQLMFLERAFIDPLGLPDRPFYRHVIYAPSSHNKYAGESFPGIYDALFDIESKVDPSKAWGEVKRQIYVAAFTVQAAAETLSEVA

Kd [1, 3] | IC50 [2, 4] | Kd [1, 5] | IC50 ([2]; pIC50 category of FACS binding) | Structure (SMILES)
< 12.6 nM | < 200 nM | – | – | CNCCCC[C@@H]1NC(=O)[C@@H](NC(=O)[C@H](Cc2ccc(Cl)cc2)NC(=O)C(C)(C)NC(=O)[C@@H](NC(=O)CC2CCN(C(=O)CN3CCN(CC(=O)O)CCN(CC(=O)O)CCN(CC(=O)O)CC3)CC2)[C@@H](C)O)CSSC[C@@H](C(=O)N[C@H](C(=O)N[C@H](C(N)=O)[C@@H](C)O)C(C)(C)C)NC(=O)[C@H](CC(N)=O)NC(=O)C(C)(C)NC(=O)[C@H](CCCNC(=N)N(C)C)NC1=O [PSM-0247, DOTA-Cmp-Thr-Aib-Pcf-[Cys-Lys(Me)-RMe2-Aib-Asn-Cys]-Tle-Thr-NH2] ({DOTA}-[X1]T[Aib][Phe(4-Cl)]C[Lys(Me)][Arg(Me2a)][Aib]NC[Tle]T-NH2; disulfide 5-10)
12.6 to 126 nM | < 200 nM | – | – | CC(=O)N[C@H](C(=O)N[C@@H](C)C(=O)N[C@@H](Cc1ccccc1)C(=O)N[C@H]1CSSC[C@@H](C(=O)N[C@H](C(=O)N[C@H](C(=O)N[C@@H](CC(=O)O)C(=O)NCCCOCCOCCOCCCNC(=O)CCC(=O)N[C@H](CCCCNC(=O)CN2CCN(CC(=O)O)CCN(CC(=O)O)CCN(CC(=O)O)CC2)C(N)=O)[C@@H](C)O)C(C)(C)C)NC(=O)[C@H](CC(N)=O)NC(=O)[C@H](C)NC(=O)[C@H](CCCNC(=N)N)NC(=O)[C@H](CCCCN)NC1=O)[C@@H](C)O [PSM-0266, Ac-Thr-Ala-Phe-[Cys-Lys-Arg-Ala-Asn-Cys]-Tle-Thr-Asp-Ttds-lys(DOTA)-NH2] (Ac-TAFCKRANC[Tle]TD-{TtdsdLys(DOTA)NH2}; disulfide 4-9)
– | – | < 12.6 nM | < 200 nM | C[C@@H](O)[C@H](NC(=O)CC1CCNCC1)C(=O)NC(C)(C)C(=O)N[C@@H](Cc1ccccc1)C(=O)N[C@H]1CSSC[C@@H](C(=O)N[C@H](C(=O)N[C@H](C(=O)N2CCC(CC(=O)N[C@H](CCCCNC(=O)CN3CCN(CC(=O)O)CCN(CC(=O)O)CCN(CC(=O)O)CC3)C(N)=O)CC2)[C@@H](C)O)C(C)(C)C)NC(=O)[C@H](CC(N)=O)NC(=O)C(C)(C)NC(=O)[C@H](CCCNC(=N)N)NC(=O)[C@H](CCCCN)NC1=O [PSM-0378, H-Cmp-Thr-Aib-Phe-[Cys-Lys-Arg-Aib-Asn-Cys]-Tle-Thr-Cmp-lys(DOTA)-NH2] (X8-T[Aib]FCKR[Aib]NC[Tle]T[X1][dK](DOTA)-NH2; disulfide 4-9)
– | – | 12.6 to 126 nM | < 200 nM | CC(=O)N[C@H](C(=O)NC(C)(C)C(=O)N[C@@H](Cc1ccc(Cl)cc1)C(=O)N[C@H]1CSSC[C@@H](C(=O)N[C@H](C(=O)N[C@H](C(N)=O)[C@@H](C)O)C(C)(C)C)NC(=O)[C@H](CCC(=O)O)NC(=O)C(C)(C)NC(=O)[C@H](CCCNC(N)=O)NC(=O)[C@H](CCCCN)NC1=O)[C@@H](C)O [PSM-0496, Ac-Thr-Aib-Pcf-[Cys-Lys-Cit-Aib-Glu-Cys]-Tle-Thr-NH2] (Ac-T[Aib][Phe(4-Cl)]CK[Cit][Aib]EC[Tle]T-NH2; disulfide 4-9)
– | – | 12.6 to 126 nM | < 200 nM | CC(=O)N[C@H](C(=O)NC(C)(C)C(=O)N[C@@H](Cc1ccc(O)cc1)C(=O)N[C@H]1CSSC[C@@H](C(=O)N[C@H](C(=O)N[C@H](C(=O)N[C@@H](CC(=O)O)C(N)=O)[C@@H](C)O)C(C)(C)C)NC(=O)[C@H](CC(N)=O)NC(=O)C(C)(C)NC(=O)[C@H](CCCNC(=N)N)NC(=O)[C@H](CCCCN)NC1=O)[C@@H](C)O [PSM-0488, Ac-Thr-Aib-Tyr-[Cys-Lys-Arg-Aib-Asn-Cys]-Tle-Thr-Asp-NH2] (Ac-T[Aib]YCKR[Aib]NC[Tle]TD-NH2; disulfide 4-9)
– | – | < 12.6 nM | < 200 nM | CC(C)(NC(=O)c1ccc(CNC(=O)CN2CCN(CC(=O)O)CCN(CC(=O)O)CCN(CC(=O)O)CC2)cc1)C(=O)N[C@@H](Cc1ccc(Cl)cc1)C(=O)N[C@H]1CSSC[C@@H](C(=O)N[C@H](C(=O)NCCC(N)=O)C(C)(C)C)NC(=O)[C@H](CC(N)=O)NC(=O)C(C)(C)NC(=O)[C@H](CCCNC(=N)N)NC(=O)[C@H](CCCCN)NC1=O [PSM-0432, DOTA-Pamb-Aib-Pcf-[Cys-Lys-Arg-Aib-Asn-Cys]-Tle-Bal-NH2] ({DOTA-4Amb}-[Aib][Phe(4-Cl)]CKR[Aib]NC[Tle][βAla]-NH2; disulfide 3-8)
